# Data taken from paper PMC8894198, “Biosynthetic Microcin J25 Exerts Strong Antibacterial, Anti-Inflammatory Activities, Low Cytotoxicity Without Increasing Drug-Resistance to Bacteria Target” (Frontiers in Immunology, 2022).
# Several values for one entry are separate records, joined by “and”; a condition that tells them apart may be missing. Identical values can stand only once. Where a SMILES comes first, the peptide text is derived from it. Bridges are numbered along the chain shown (N, C = ends).
# Assays:
# Format in all cases: cell-based
# E. coli 521ZQE = details: source pig tissue, three independent experiments
# Procedure: (§1) The minimum inhibitory concentration (MIC) refers to the lowest concentration that can produce a significant hindrance to bacterial growth in a drug sensitivity test by adopting a broth dilution, with certain refinements and modifications based on the previous description ([25], [26]). In short, MccJ25 was dissolved in sterilized distilled water (SDW), serial 2-fold dilutions were prepared in Mueller-Hinton broth (MHB) through a 96-well microtiter plate, and the final concentration of MccJ25 was maintained in the range of 0.003125 to 256 μg/mL. Then, 2 μL of standard and clinically relevant overnight broth cultures of bacteria were inoculated into each well at a concentration of 5 × 10^6 CFU/mL. Microtiter plates were incubated at 37°C for one full day. Two groups were set up: positive (medium with inoculum) and negative (medium only) controls. The minimum bactericidal concentration (MBC) was measured in LB medium and refers to the first drug dilution value at which the initial bacterial concentration was reduced by 99.99%. The final analysis was determined by the results of three replicated and independent experiments. To further assess and clarify the antimicrobial activity of MccJ25, the protective ability against E. coli adhesion, live/dead assay, and killing curve were performed, the detailed methods were provided in Supplementary Materials .
# E. coli 987P = test system: E. coli 987P
# Procedure: as §1
# E. coli AZ1 = details: source pig tissue
# Procedure: as §1
# E. coli BRO 134 = details: source broiler stool
# Procedure: as §1
# E. coli BRO 477 = details: source broiler stool
# Procedure: as §1
# E. coli CATT921A-1 = details: source mastitis pathogens
# Procedure: as §1
# E. coli CVCC1522 = test system: E. coli CVCC1522
# Procedure: as §1
# E. coli CVCC1543 = test system: E. coli CVCC1543
# Procedure: as §1
# E. coli K88 = test system: E. coli K88
# Procedure: as §1
# E. coli K99 = test system: E. coli K99
# Procedure: as §1
# E. coli LKFZ F2 = details: source pig stool
# Procedure: as §1
# E. coli SWI 437 = details: source pig stool
# Procedure: as §1
# E. coli SWI 535 = details: source pig tissue
# Procedure: as §1
# E. coli WWE921A-2 = details: source pig tissue
# Procedure: as §1
# Salmonella CATT LX1 = details: source mastitis pathogens
# Procedure: as §1
# Salmonella CATT LX2 = details: source mastitis pathogens
# Procedure: as §1
# Salmonella CATT LX5 = details: source mastitis pathogens
# Procedure: as §1
# Salmonella CATT LX9 = details: source mastitis pathogens
# Procedure: as §1
# Salmonella CATT W14 = details: source mastitis pathogens
# Procedure: as §1
# [1] = LB medium, 99.99% reduction, three independent experiments
# [2] = broth dilution in MHB, 37°C, one day, three independent experiments
# [3] = broth dilution in MHB, 37°C, three independent experiments
smiles,measurement,setting,value
"CC[C@H](C)[C@H](NC(=O)CNC(=O)[C@@H](NC(=O)[C@H](Cc1ccccc1)NC(=O)[C@H](Cc1ccc(O)cc1)NC(=O)[C@@H]1CCC(=O)NCC(=O)NCC(=O)N[C@@H](C)C(=O)NCC(=O)N[C@@H](Cc2c[nH]cn2)C(=O)N[C@@H](C(C)C)C(=O)N2CCC[C@H]2C(=O)N1)C(C)C)C(=O)NCC(=O)N[C@H](C(=O)N1CCC[C@H]1C(=O)N[C@H](C(=O)N[C@@H](CO)C(=O)N[C@@H](Cc1ccccc1)C(=O)N[C@@H](Cc1ccc(O)cc1)C(=O)NCC(=O)O)[C@@H](C)CC)[C@@H](C)O [MccJ25, microcin J25] (GGAGHVPEYFVGIGTPISFYG-OH; lactam N-8 (inferred); C-terminus assumed)",MBC,"E. coli 521ZQE; LB medium, 99.99% reduction",2.000 mg/L
same,MIC,"E. coli 521ZQE; broth dilution in MHB, 37°C",0.250 mg/L
same,MBC,E. coli 987P; [1],0.500 mg/L
same,MIC,E. coli 987P; [2],0.030 mg/L
same,MIC/MBC,E. coli 987P; ratio,0.060
same,MBC,E. coli AZ1; [1],1.000 mg/L
same,MIC,E. coli AZ1; [3],0.500 mg/L
same,MIC/MBC,E. coli AZ1; ratio,0.500
same,MBC,E. coli BRO 134; [1],2.000 mg/L
same,MIC,E. coli BRO 134; [3],0.250 mg/L
same,MIC/MBC,E. coli BRO 134; ratio,0.125
same,MBC,E. coli BRO 477; [1],1.000 mg/L
same,MIC,E. coli BRO 477; [3],0.500 mg/L
same,MIC/MBC,E. coli BRO 477; ratio,0.500
same,MBC,E. coli CATT921A-1; [1],2.000 mg/L
same,MIC,E. coli CATT921A-1; [3],0.250 mg/L
same,MIC/MBC,E. coli CATT921A-1; ratio,0.125
same,MBC,E. coli CVCC1522; [1],0.500 mg/L
same,MIC,E. coli CVCC1522; [2],0.03 mg/L and 0.030 mg/L
same,MIC/MBC,E. coli CVCC1522; ratio,0.060
same,MBC,E. coli CVCC1543; [1],0.250 mg/L
same,MIC,E. coli CVCC1543; [2],0.03 mg/L and 0.030 mg/L
same,MIC/MBC,E. coli CVCC1543; ratio,0.120
same,MBC,E. coli K88; [1],0.500 mg/L
same,MIC,E. coli K88; [2],0.250 mg/L
same,MIC/MBC,E. coli K88; ratio,0.500
same,MBC,E. coli K99; [1],0.250 mg/L
same,MIC,E. coli K99; [2],0.030 mg/L
same,MIC/MBC,E. coli K99; ratio,0.120
same,MBC,E. coli LKFZ F2; [1],0.500 mg/L
same,MIC,E. coli LKFZ F2; [3],0.250 mg/L
same,MIC/MBC,E. coli LKFZ F2; ratio,0.500
same,MBC,E. coli SWI 437; [1],0.250 mg/L
same,MIC,E. coli SWI 437; [3],0.030 mg/L
same,MIC/MBC,E. coli SWI 437; ratio,0.120
same,MBC,E. coli SWI 535; [1],2.000 mg/L
same,MIC,E. coli SWI 535; [3],0.500 mg/L
same,MIC/MBC,E. coli SWI 535; ratio,0.250
same,MBC,E. coli WWE921A-2; [1],2.000 mg/L
same,MIC,E. coli WWE921A-2; [3],1.000 mg/L
same,MIC/MBC,E. coli WWE921A-2; ratio,0.500
same,MBC,Salmonella CATT LX1; [1],0.250 mg/L
same,MIC,Salmonella CATT LX1; [3],0.060 mg/L
same,MIC/MBC,Salmonella CATT LX1; ratio,0.240
same,MBC,Salmonella CATT LX2; [1],0.125 mg/L
same,MIC,Salmonella CATT LX2; [3],0.030 mg/L
same,MIC/MBC,Salmonella CATT LX2; ratio,0.240
same,MBC,Salmonella CATT LX5; [1],0.125 mg/L
same,MIC,Salmonella CATT LX5; [3],0.030 mg/L
same,MIC/MBC,Salmonella CATT LX5; ratio,0.240
same,MBC,Salmonella CATT LX9; [1],0.125 mg/L
same,MIC,Salmonella CATT LX9; [3],0.060 mg/L
same,MIC/MBC,Salmonella CATT LX9; ratio,0.480
same,MBC,Salmonella CATT W14; [1],0.250 mg/L
same,MIC,Salmonella CATT W14; [3],0.060 mg/L
same,MIC/MBC,Salmonella CATT W14; ratio,0.240
